Calls of active or inactive are those of the source. The calls are words filed in the database; no cut-off is given here.
Legend:
[1] = test system: MV4-11; experiment: cells; details: Homo sapiens, MV4-11, 72 h
[2] = target: T1, Receptor-type tyrosine-protein kinase FLT3 (Homo sapiens, UniProt P36888)
T1 sequence (P36888 whole entry): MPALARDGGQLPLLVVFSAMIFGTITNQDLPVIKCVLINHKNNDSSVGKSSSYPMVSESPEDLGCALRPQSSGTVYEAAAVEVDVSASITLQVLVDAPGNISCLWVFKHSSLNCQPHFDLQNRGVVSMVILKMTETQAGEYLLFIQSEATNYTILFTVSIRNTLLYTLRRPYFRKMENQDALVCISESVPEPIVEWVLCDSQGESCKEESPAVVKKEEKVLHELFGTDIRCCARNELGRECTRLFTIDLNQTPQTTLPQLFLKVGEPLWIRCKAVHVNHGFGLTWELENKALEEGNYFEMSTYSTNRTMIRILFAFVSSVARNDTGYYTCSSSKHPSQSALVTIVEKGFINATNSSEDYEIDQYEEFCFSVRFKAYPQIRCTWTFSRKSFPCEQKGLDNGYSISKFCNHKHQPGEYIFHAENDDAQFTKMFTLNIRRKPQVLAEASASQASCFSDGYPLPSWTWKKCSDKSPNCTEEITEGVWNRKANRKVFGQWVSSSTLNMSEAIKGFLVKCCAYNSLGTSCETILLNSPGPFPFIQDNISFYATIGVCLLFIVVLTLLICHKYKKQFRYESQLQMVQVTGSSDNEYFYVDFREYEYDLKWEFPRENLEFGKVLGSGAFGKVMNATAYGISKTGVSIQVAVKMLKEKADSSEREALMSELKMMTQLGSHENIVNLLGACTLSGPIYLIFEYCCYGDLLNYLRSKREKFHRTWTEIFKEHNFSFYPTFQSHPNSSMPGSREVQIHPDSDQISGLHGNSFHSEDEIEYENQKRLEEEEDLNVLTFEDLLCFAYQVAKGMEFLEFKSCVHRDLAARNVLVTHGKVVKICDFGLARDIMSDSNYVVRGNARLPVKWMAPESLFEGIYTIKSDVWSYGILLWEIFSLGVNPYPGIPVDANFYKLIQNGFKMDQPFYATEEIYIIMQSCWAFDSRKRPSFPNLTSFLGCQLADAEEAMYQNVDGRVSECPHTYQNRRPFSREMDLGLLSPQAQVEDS

[3] = Oral bioavailability in ICR mouse at 10 mg/kg measured up to 1440 mins by LC-MS/MS analysis; format: ADME, organism-based; details: in vivo
[4] = test system: MV4-11; experiment: Antiproliferative activity against human MV4-11 cells assessed as growth inhibition after 72 hrs; format: functional
[5] = test system: MV4-11; experiment: Antitumor activity against human MV4-11 cells xenografted in BALB/c nu/nu mouse assessed as reduction in tumor volume at 20 mg/kg, po administered once daily for 21 days measured twice daily during compound dosing; format: functional, organism-based; details: time 21.0 day
[6] = AUClast in ICR mouse at 10 mg/kg, iv or po measured up to 1440 mins by LC-MS/MS analysis; format: ADME, organism-based; parameters: dose 10 mg/kg, time <=1440; details: in vivo
[7] = Cmax in ICR mouse at 10 mg/kg, iv or po measured up to 1440 mins by LC-MS/MS analysis; format: ADME, organism-based; parameters: dose 10 mg/kg, time <=1440; details: in vivo
[8] = Toxicity in BALB/c nu/nu mouse xenografted with human MV4-11 cells assessed as body weight loss at 20 mg/kg, po administered for 21 days; format: organism-based; details: in vivo, 504 h, time 21 day
[9] = test system: MDA-MB-231; experiment: cells; details: Homo sapiens, MDA-MB-231, read-out: INH
[10] = test system: HepG2; experiment: cells; details: Homo sapiens
[11] = test system: K562; experiment: Antiproliferative activity against human K562 cells assessed as cell growth inhibition by WST assay; format: functional
[12] = test system: A549; experiment: cells; details: Homo sapiens, A549, read-out: INH
[13] = test system: SK-OV-3; experiment: cells; details: Homo sapiens, SK-OV-3, read-out: INH
[14] = test system: HCT-116; experiment: cells; details: Homo sapiens, HCT-116, read-out: INH
[15] = test system: MOLM-14; experiment: cells; details: Homo sapiens
[16] = test system: MV4-11; experiment: Antiproliferative activity against human MV4-11 cells assessed as cell growth inhibition by Celltiter-Glo luminescent assay; format: functional
[17] = test system: MOLM-14; experiment: cells; details: Homo sapiens; remark: listed apart in the source
[18] = test system: MOLM-14; experiment: cells; details: Homo sapiens; remark: listed apart in the source
[19] = test system: PC-3; experiment: cells; details: Homo sapiens, PC-3, read-out: INH
[20] = test system: MOLM-14; experiment: cells; details: Homo sapiens; remark: listed apart in the source
[21] = Clearance in ICR mouse at 10 mg/kg, iv or po measured up to 1440 mins by LC-MS/MS analysis; format: ADME, organism-based; details: in vivo
[22] = Half-life in ICR mouse at 10 mg/kg, iv or po measured up to 1440 mins by LC-MS/MS analysis; format: ADME, organism-based; details: in vivo

| GI50 [1] | IC50 [2] | SMILES | further results |
| --- | --- | --- | --- |
| 100 nM | 345 nM | O=C1Nc2ccc([N+](=O)[O-])cc2/C1=C1/Nc2ccc(O)cc2/C1=N\OCCN1CCOCC1 |  |
| 105 nM | 45 nM | O=C1Nc2ccc(F)cc2/C1=C1/Nc2ccc(F)cc2/C1=N\OCCN1CCCCC1 |  |
| 95.3 nM | 8.6 nM | Cl.NCCO/N=C1/C(=C2/C(=O)Nc3ccc([N+](=O)[O-])cc32)Nc2ccc(O)cc21 | bioavailability [3]: 0% |
| 15.1 nM | 20.9 nM | O=C1Nc2ccccc2/C1=C1/Nc2ccccc2/C1=N\OCCNC1CCNCC1 |  |
| 7 nM | 5.62 nM | CN1CCN(CCO/N=C2/C(=C3/C(=O)Nc4ccc(OC(F)(F)F)cc43)Nc3ccccc32)CC1 |  |
| 634 nM | 116 nM | O=C1Nc2ccc(F)cc2/C1=C1/Nc2ccc(F)cc2/C1=N\OCCN1CCCC1 |  |
|  | 2.7 nM | Cl.O=C1Nc2ccccc2/C1=C1/Nc2ccccc2/C1=N\OCCN1CCNCC1 | bioavailability [3]: 51%; Activity [5]: Active; AUC(0-t) at 24 h [6]: 1200 ng·h/mL; Cmax [7]: 69.7 ng/mL; Activity [8]: Non-Toxic |
| 116 nM | 98.3 nM | O=C1Nc2ccc(F)cc2/C1=C1/Nc2ccc(F)cc2/C1=N\OCCN1CCOCC1 |  |
| 470 nM | 324 nM | O=C1Nc2ccc([N+](=O)[O-])cc2/C1=C1/Nc2ccc(O)cc2/C1=N\OCCBr |  |
| 7.01 nM | 13.2 nM | Cl.O=C1Nc2ccc([N+](=O)[O-])cc2/C1=C1/Nc2ccccc2/C1=N\OCCN1CCNCC1 | bioavailability [3]: 1.33%; clearance [21]: 108 mL/min/kg |
| 54.8 nM | 9.29 nM | CN1CCN(CCO/N=C2/C(=C3/C(=O)Nc4ccccc43)Nc3ccccc32)CC1 |  |
| 212 nM | 257 nM | O=C1Nc2ccc(F)cc2/C1=C1/Nc2ccccc2/C1=N\OCCN1CCCC1 |  |

More lines, now with the values behind:

| SMILES | GI50 [1] | IC50 [2] | further results |
| --- | --- | --- | --- |
| O=C1Nc2ccc([N+](=O)[O-])cc2/C1=C1/Nc2ccc(O)cc2/C1=N\O | 133 nM |  |  |
| O=C1Nc2ccc([N+](=O)[O-])cc2/C1=C1/Nc2ccc(F)cc2/C1=N\OCCN1CCNCC1 | 10.2 nM | 27.6 nM |  |
| O=C1Nc2ccc(OC(F)(F)F)cc2/C1=C1/Nc2ccccc2/C1=N\OCCN1CCNCC1 | 17 nM | 40.2 nM |  |
| COC(=O)c1ccc2c(c1)/C(=C1/Nc3ccccc3/C1=N\OCCN1CCNCC1)C(=O)N2 |  |  | bioavailability [3]: 1.43%; GI50 [4]: 1 nM |
| O=C1Nc2ccc(F)cc2/C1=C1/Nc2ccccc2/C1=N\OCCN1CCCCC1 | 263 nM | 142 nM |  |
| CN1CCN(CCO/N=C2/C(=C3/C(=O)Nc4ccc(F)cc43)Nc3ccc(F)cc32)CC1 | 31.5 nM | 27 nM |  |
| COc1ccc2c(c1)/C(=C1/Nc3ccccc3/C1=N\OCCN1CCN(C)CC1)C(=O)N2 | 20 nM | 2.1 nM |  |
| CCc1nc(C(N)=O)c(Nc2ccc(N3CCC(N4CCN(C)CC4)CC3)c(OC)c2)nc1NC1CCOCC1 [GILTERITINIB] |  |  | inhibition at 1 µM [9]: 42.1%; GI50 [10]: 2200 nM; GI50 [11]: 1010 nM; inhibition at 1 µM [12]: 4.05%; inhibition at 1 µM [13]: 23.3%; inhibition at 1 µM [14]: 45.1%; GI50 [15]: 4.94 nM; GI50 [16]: 0.9 nM; GI50 [17]: 1.91 nM; GI50 [18]: 3.29 nM; inhibition at 1 µM [19]: 41.8%; GI50 [20]: 5.24 nM |
| O=C1Nc2ccccc2/C1=C1/Nc2ccccc2/C1=N\OCCN1CCCC1 | 104 nM | 41.3 nM |  |
| Cl.O=C1Nc2ccc(F)cc2/C1=C1/Nc2ccc(F)cc2/C1=N\OCCN1CCNCC1 | 8.3 nM | 15.8 nM | bioavailability [3]: 16.7%; clearance [21]: 28.1 mL/min/kg; half-life [22]: 3.4 h |
| O=C1Nc2ccccc2/C1=C1/Nc2ccccc2/C1=N\OCCN1CCCCC1 | 138 nM | 128 nM |  |
| COc1ccc2c(c1)/C(=C1/Nc3ccccc3/C1=N\OCCN1CCNCC1)C(=O)N2 | 22 nM | 12.4 nM |  |
| O=C1Nc2ccc(F)cc2/C1=C1/Nc2ccccc2/C1=N\OCCNC1CCNCC1 | 11.9 nM | 9.47 nM |  |
| CN1CCN(CCO/N=C2/C(=C3/C(=O)Nc4ccc([N+](=O)[O-])cc43)Nc3ccc(F)cc32)CC1 | 118 nM | 31.2 nM |  |
| Cl.O=C1Nc2ccc(F)cc2/C1=C1/Nc2ccc(F)cc2/C1=N\OCCNC1CCNCC1 | 8.47 nM | 11.6 nM | bioavailability [3]: 15.3%; clearance [21]: 231 mL/min/kg; half-life [22]: 9.2 h |
| Cl.O=C1Nc2ccc([N+](=O)[O-])cc2/C1=C1/Nc2ccc(O)cc2/C1=N\OCCN1CCNCC1 | 26.5 nM | 12.2 nM | bioavailability [3]: 0%; clearance [21]: 70.4 mL/min/kg |
| CN1CCN(CCO/N=C2/C(=C3/C(=O)Nc4ccc(F)cc43)Nc3ccccc32)CC1 | 11.1 nM | 3.3 nM |  |
| CN1CCN(CCO/N=C2/C(=C3/C(=O)Nc4ccc([N+](=O)[O-])cc43)Nc3ccc(O)cc32)CC1 | 50 nM | 18.9 nM |  |

Source: ChEMBL document CHEMBL4765285, “Discovery of orally active indirubin-3'-oxime derivatives as potent type 1 FLT3 inhibitors for acute myeloid leukemia” (Eur J Med Chem, 2020)
